Tests used:
[1] = Sc^III complexes of other ligands; literature values; cited from earlier work
[2] = comparison table; literature value; cited from earlier work
[3] = comparison table; literature value; cited from earlier work; remark: listed apart in the source
[4] = Potentiometric determination of stability constants of Sc^III complexes; type: physicochemical; conditions: for log K, [Sc(L)] + HL ↔ [M(HL)(L)]: I = 0.1 M NMe4Cl, coordination of second ligand molecule
Method: Potentiometry was carried out according to the previously published procedures; for the preparation of stock solutions and chemicals, equipment, electrode system calibration, titration procedures and data treatment, see refs – . Throughout the paper, pH means −log[H^+]. The protonation and stability constants were determined in 0.1 M (NMe4)Cl at 25.0 °C with pK w = 13.81. The Sc^III–H3nota system was studied by in-cell titrations from data obtained in the pH range 1.6–12 with ∼40 points per titration and four parallel titrations (c L = 0.004 M, c Sc = 0.004 or 0.002 M). The Sc^III–H2 L ^1 and Sc^III–H2 L ^2 systems were studied by a combination of the out-of-cell and in-cell methods. The out-of-cell method was performed at 1:1 ligand-to-metal ratio (c L = c Sc = 0.004 M, pH 1.5–5.0, 15–25 points per titration), and the in-cell method was performed at 1:1 and 2:1 ligand-to-metal ratios (c L = c Sc = 0.004, pH 5.0–12.0 or until precipitation of hydroxide, 15–20 points per titration; or c L = 0.004 M, c M = 0.002 M, pH 2.0–11.5, ∼40 points per titration). […] Stability constants for the Sc^III–OH^– system were taken from the literature. Protonation constants of ligands were adopted from literature–H3nota: 13.17, 5.74, 3.22, 1.96, 0.70; H2 L ^1 : 13.03, 4.24, 2.04, 0.67; H2 L ^2 : 12.93, 4.91, 2.48, 0.92.
High thermodynamic stability of complexes is an important property of metal complexes used in radio medicine. Thus, stability constants of the Sc^III complexes with the studied chelators were determined by potentiometry. Complexation of Sc^III by H3nota was fast, and thus, it was studied by the direct titration technique (in-cell method). Complexation of Sc^III by H2 L ^1 and H2 L ^2 was slower in the acidic region (pH < 3) and, thus, the batch titrations (out-of-cell method) had to be applied. In addition, the systems were studied in-cell in the neutral and weakly alkaline regions. The strongly alkaline region cannot be studied in the Sc^III–H2 L ^1 and Sc^III–H2 L ^2 systems due to decomposition of the complexes and precipitation of Sc^III hydroxide.

[5] = comparison table; literature value; cited from earlier work; remark: listed apart in the source
[6] = comparison table; literature value; cited from earlier work; remark: listed apart in the source
[7] = comparison table; literature value; cited from earlier work; remark: listed apart in the source
[8] = Solution stability of Sc^III complexes (alkaline solution, excess oxalate); type: physicochemical; conditions: slowly decompose in strongly alkaline solutions or under excess oxalate, yielding insoluble Sc^III oxalate or hydroxide
Method: The NMR experiments were carried out on the Bruker Avance III 600 (with a cryoprobe), Bruker Avance III HD 400 or Varian VNMRS 300 MHz or Varian Unity Inova-400 spectrometers in 5 mm tubes. Chemical shifts are given in ppm, and the coupling constants are in Hz. All NMR spectra were collected at 25 °C. The shifts were referenced with external standards: 0.1% tBuOH in D2O (^1H δ 1.25 ppm, ^13C δ 30.30 ppm). External reference for ^45Sc was 0.1 M solution of Sc(ClO4)3 in 1 M aq. HClO4. The pH of samples was adjusted with diluted aq. HCl or aq. LiOH (∼0.5%), or maintained with 0.25 M imidazole/HCl buffer. Binary complexes were prepared by mixing solid ligands (typically at a final concentration of 25 mM) with standardized ScCl3 solution in Sc/L 1:1 or 1:2 molar ratios. Ternary complexes with oxalate anions were studied by mixing a lithium(I) oxalate aq. solution (25 mM) and variable amounts of stock solutions (200 mM) of Sc^III complexes with the studied ligands.

Q: Which “log K [M(L)] of Sc^III complex” value [1] does the source give for `O=C([O-])CN(CCN(CC(=O)[O-])CC(=O)[O-])CCN(CC(=O)[O-])CC(=O)[O-].[Sc+3]` [[Sc(dtpa)]^2–] here?
A: The value was 27.43.

Q: For `O=C(O)CN1CCN(CC(=O)O)CCN(Cc2cccc(P(=O)(O)O)n2)CC1` [H4mpatcn-PyP], which “log K [M(L)] of Sc^III complex” value [1] is on record?
A: Its value is 21–26.

Q: For `O=C([O-])CN1CCN(CC(=O)[O-])CCN(Cc2cccc(C(=O)[O-])n2)CC1.[Sc+3]` [[Sc(mpatcn)]], which “log K [M(L)] of Sc^III complex” value [1] is on record?
A: Its value is 21–26.

Q: For `O=C(O)CN1CCN(CC(=O)O)CCN(CC(=O)O)CC1` [H3nota, 1,4,7-Triazacyclononane-1,4,7-triacetic Acid], which “Stability constant log K ML, Cd^II” value [2] is on record?
A: The value was 17.87.

Q: What about the “Stability constant log K ML, Cu^II” value [3] of the same compound?
A: Its value is 23.33.

Q: What about the “Overall stability constant logβ, Sc + 2 L + H+ ⇄ [Sc(HL)(L)]” value ([4]; I = 0.1M (NMe4)Cl, 25 °C) of the same compound?
A: The value was 35.78(6).

Q: And the “Overall stability constant logβ, Sc + L + H2O ⇄ [Sc(L)(OH)] + H+” value ([4]; I = 0.1M (NMe4)Cl, 25 °C)?
A: The value was 11.73(2).

Q: And the “Overall stability constant logβ, Sc + L ⇄ [Sc(L)]” value ([4]; I = 0.1M (NMe4)Cl, 25 °C)?
A: Its value is 19.50(1).

Q: What about the “log K, Sc + L ↔ [Sc(L)]” value ([4]; I = 0.1M (NMe4)Cl, 25 °C) of the same compound?
A: The value was 19.50.

Q: What about the “log K, [Sc(L)(OH)] + H+ ↔ [M(L)(H2O)]” value ([4]; I = 0.1M (NMe4)Cl, 25 °C) of the same compound?
A: The value was 7.77.

Q: And the “log K, [Sc(L)] + HL ↔ [M(HL)(L)]” value ([4]; 25 °C)?
A: Its value is 3.11.

Q: What about the “Stability constant log K ML, Sc^III” value ([4]; comparison table) of the same compound?
A: The value was 19.50.

Q: What about the “Stability constant log K ML, Ga^III” value [5] of the same compound?
A: Its value is 29.60.

Q: And the “Stability constant log K ML, Zn^II” value [6]?
A: Its value is 22.32.

Q: What about the “Stability constant log K ML, Pb^II” value [7] of the same compound?
A: The value was 18.18.

Q: For `CCNC(=O)CN1CCN(CC(=O)O)CCN(CC(=O)O)CC1` [H2 L ^1], which “Stability constant log K ML, Cu^II” value [3] is on record?
A: The value was 21.37.

Q: What about the “Stability of Sc^III complex in solution” value [8] of the same compound?
A: The value was “limited stability”.

Q: And the “Overall stability constant logβ, Sc + L ⇄ [Sc(L)]” value ([4]; I = 0.1M (NMe4)Cl, 25 °C)?
A: The value was 16.64(1).

Q: And the “log K, Sc + L ↔ [Sc(L)]” value ([4]; I = 0.1M (NMe4)Cl, 25 °C)?
A: Its value is 16.64.

Q: What about the “log K, [Sc(L)(OH)] + H+ ↔ [M(L)(H2O)]” value ([4]; I = 0.1M (NMe4)Cl, 25 °C) of the same compound?
A: The value was 7.36.

Q: And the “log K, [Sc(L)] + HL ↔ [M(HL)(L)]” value ([4]; 25 °C)?
A: The value was 2.86.

Q: What about the “Stability constant log K ML, Zn^II” value [6] of the same compound?
A: Its value is 18.89.

Q: With `O=C(O)CN1CCN(Cc2cccc(C(=O)O)n2)CCN(CP(=O)(O)O)CC1` [H4mpatcn-P] as the compound, how does the “log K [M(L)] of Sc^III complex” value [1] read?
A: The value was 21–26.

— article PMC12648657, “Sc(III) Complexes of 1,4,7-Triazacyclononane-1,4,7-triacetic Acid and Its Monoamides” (Inorganic Chemistry, 2025)
